Where a SMILES comes first, the peptide text is derived from it. [ ]: non-standard residue; d: D form. Nspe = C[C@H](NCC(=O)O)c1ccccc1; NhArg = N=C(N)NCCCCNCC(=O)O; Nlys = NCCCCNCC(=O)O

Broadly, the IC50 is the concentration that inhibits the measured activity by half.

Holding throughout (type): cell-based
Test [1] concerns erythrocytic stages of P. falciparum. Conditions: for active against P. falciparum: statement in words; for IC50: strain (NF54 or K1) not given. The procedure:
In vitro activity against erythrocytic stages of P. falciparum was determined using a 3H-hypoxanthine incorporation assay using the drug sensitive NF54 strain (Schipol airport) or the chloroquine and pyrimethamine resistant K1 strain that originate from Thailand and the standard drug chloroquine (Sigma C6628). Compounds were dissolved in DMSO at 10 mg/ml and added to parasite cultures incubated in RPMI 1640 medium without hypoxanthine, supplemented with HEPES (5.94 g/l), NaHCO3 (2.1 g/1), neomycin (100 U/ml), Albumax® (5 g/l) and washed human red cells A^+ at 2.5% haematocrit (0.3% parasitaemia). Serial drug dilutions of eleven 3-fold dilution steps covering a range from 100 to 0.002 μg/ml were prepared. The 96-well plates were incubated in a humidified atmosphere at 37° C.; 4% CO2, 3% O2, 93% N2. After 48 h 50 μl of 3H-hypoxanthine (=0.5 μCi) was added to each well of the plate. The plates were incubated for a further 24 h under the same conditions. The plates were then harvested with a Betaplate™ cell harvester (Wallac, Zurich, Switzerland), and the red blood cells transferred onto a glass fibre filter then washed with distilled water. The dried filters were inserted into a plastic foil with 10 ml of scintillation fluid, and counted in a Betaplate™ liquid scintillation counter (Wallac, Zurich, Switzerland). IC50 values were calculated from sigmoidal inhibition curves by linear regression using Microsoft Excel. Chloroquine and artemisinin are used as control.

Test [2] has as its system T. cruzi Tulahuen strain C2C4. Kind of test: microbe, parasite or virus in culture. Conditions: for IC50: in L-6 cells, 96 h, read-out: IC50 T. cruzi; for active against T. cruzi: statement in words. As for the experimental part:
Rat skeletal myoblasts (L-6 cells) were seeded in 96-well microtitre plates at 2000 cells/well in 100 μL RPMI 1640 medium with 10% FBS and 2 mM 1-glutamine. After 24 h the medium was removed and replaced by 100 μl per well containing 5000 trypomastigote forms of T. cruzi Tulahuen strain C2C4 containing the β-galactosidase (Lac Z) gene. After 48 h the medium was removed from the wells and replaced by 100 μl fresh medium with or without a serial drug dilution of eleven 3-fold dilution steps covering a range from 100 to 0.002 μg/ml. After 96 h of incubation the plates were inspected under an inverted microscope to assure growth of the controls and sterility. Then the substrate CPRG/Nonidet (50 μl) was added to all wells. A color reaction developed within 2-6 h and could be read photometrically at 540 nm. Data were analyzed with the graphic programme Softmax Pro (Molecular Devices), which calculated IC50 values by linear regression from the sigmoidal dose inhibition curves. Benznidazole is used as control (IC50 0.5+0.2 μg/ml).

Test [3] relates to L. donovani strain MHOM/ET/67/L82 axenic amastigotes. As to conditions: for active against L. donovani: statement in words; for IC50: strain MHOM/ET/67/L82 axenic amastigotes, 70 h. As for the experimental part:
Amastigotes of L. donovani strain MHOM/ET/67/L82 were grown in axenic culture at 37° C. in SM medium^24 at pH 5.4 supplemented with 10% heat-inactivated fetal bovine serum under an atmosphere of 5% CO2 in air. One hundred microlitres of culture medium with 10^5 amastigotes from axenic culture with or without a serial drug dilution were seeded in 96-well microtitre plates. Serial drug dilutions of eleven 3-fold dilution steps covering a range from 90 to 0.002 μg/ml were prepared. After 70 h of incubation the plates were inspected under an inverted microscope to assure growth of the controls and sterile conditions. 10 μl of Alamar Blue (12.5 mg resazurin dissolved in 100 ml distilled water) were then added to each well and the plates incubated for another 2 h. Then the plates were read with a Spectramax Gemini XS microplate fluorometer (Molecular Devices Cooperation, Sunnyvale, Calif., USA) using an excitation wave length of 536 nm and an emission wave length of 588 nm. Data were analyzed using the software Softmax Pro (Molecular Devices Cooperation, Sunnyvale, Calif., USA). Decrease of fluorescence (=inhibition) was expressed as percentage of the fluorescence of control cultures and plotted against the drug concentrations. From the sigmoidal inhibition curves the IC50 values were calculated.

The subject of test [4] is Leishmania mexicana (M379). Conditions: for IC50: parasite stage not given, read-out: IC50 L. mexicana; for active against L. mexicana: statement in words. The procedure:
Leishmania mexicana (M379) promastigote parasites were maintained at 26° C. in Schneider's Insect medium (Sigma-Aldrich) supplemented with heat-inactivated foetal bovine sera (FBS, 15%; Biosera Ltd). Cells were counted using a Neubauer Improved Haemocytometer. Promastigotes were transformed into axenic amastigotes by a pH and temperature shift as previously described. A culture of recently transformed (three days) promastigotes in the late log phase was transferred into Schneider's Insect medium supplemented with 20% heat-inactivated FBS (pH 5.5) at 5×10^5 parasites/mL. After 6 days, the parasites were in the metacyclic stage and used for transformation to amastigote-like forms by transfer in the same medium at 32° C. at 5×10^5 parasites/mL. After additional 5-7 days, the parasites should be in the amastigote stage and be ready for cytotoxicity studies and infections.
Cytotoxicity analyses were performed in 96-well plates (Costar, Fisher Scientific) using Alamar Blue (Invitrogen) for cell viability detection as previously described.
Promastigote and amastigote L. mexicana were pre-incubated with the compounds in triplicate (5 mM stock solutions in DMSO; Amphotericin B was used as a positive control; untreated parasites with DMSO as a negative control) in 50 μl of the corresponding media at 4×106 mL-1 for 1 hour. Afterwards, 40 μl were removed from each well before the addition of 90 μl of the corresponding media, followed by incubation for 24 hours at 4×105 mL-1. Then, 10 μl Alamar Blue solution (Invitrogen) was added to each well for an incubation of 4 hours prior to assessing cell viability using a fluorescent plate reader (Biotek; Ex 560 nm/Em 600 nm). To investigate the effects of serum on the efficacy of the peptoids, the assay described above was modified using serum-free medium for the pre-incubation time. For these assays, the parasites were washed three times in serum-free medium before adding them to the compound solutions. All of the experiments described above were carried out on a minimum of two separate occasions to ensure a robust data set was collected.

On to `C[C@@H](c1ccccc1)N(CC(N)=O)C(=O)CN(C(=O)CN(CCCCNC(=N)N)C(=O)CN(C(=O)CN(C(=O)CN(CCCCNC(=N)N)C(=O)CN(C(=O)CN(C(=O)CN(CCCCN)C(=O)CN(C(=O)CN(C(=O)CNCCCCN)[C@@H](C)c1ccccc1)[C@@H](C)c1ccccc1)[C@@H](C)c1ccccc1)[C@@H](C)c1ccccc1)[C@@H](C)c1ccccc1)[C@@H](C)c1ccccc1)[C@@H](C)c1ccccc1` [Peptoid 1, (NLys-Nspe-Nspe)2(NhArg-Nspe-Nspe)2] (H-[Nlys][Nspe][Nspe][Nlys][Nspe][Nspe][NhArg][Nspe][Nspe][NhArg][Nspe][Nspe]-NH2; N-terminus assumed), for which, in test [1], the “active against P. falciparum” value is “active” and the IC50 was determined as 1500 nM. In addition, in test [2], the IC50 was found to be 12.3 µM and the “active against T. cruzi” value was “active”. In addition, in test [3], the “active against L. donovani” value is recorded as “active” and half-maximal inhibition (IC50) was put at 11.1 µM. Also, in test [4], the half-inhibitory concentration (IC50) turned out to be 37 µM and the “active against L. mexicana” value was “active”.
For the compound `C[C@@H](c1ccccc1)N(CC(N)=O)C(=O)CN(C(=O)CN(CCCCN)C(=O)CN(C(=O)CN(C(=O)CN(CCCCNC(=N)N)C(=O)CN(C(=O)CN(C(=O)CN(CCCCN)C(=O)CN(C(=O)CN(C(=O)CNCCCCNC(=N)N)[C@@H](C)c1ccccc1)[C@@H](C)c1ccccc1)[C@@H](C)c1ccccc1)[C@@H](C)c1ccccc1)[C@@H](C)c1ccccc1)[C@@H](C)c1ccccc1)[C@@H](C)c1ccccc1` [Peptoid 4, [(NhArg-Nspe-Nspe)(NLys-Nspe-Nspe)]2] (H-[NhArg][Nspe][Nspe][Nlys][Nspe][Nspe][NhArg][Nspe][Nspe][Nlys][Nspe][Nspe]-NH2; N-terminus assumed), in test [1], the “active against P. falciparum” value is given as “active” and 2720 nM corresponded to half-maximal inhibition (IC50). In test [2], the IC50 worked out at 21.5 µM and the “active against T. cruzi” value is on record as “active”. Moreover, in test [3], the “active against L. donovani” value is reported as “active” and the midpoint of inhibition, the IC50, lay at 19.9 µM. Also, in test [4], the half-inhibitory concentration (IC50) came to 37 µM and the “active against L. mexicana” value was “active”.

The values above are taken from patent publication US20180201647A1, “Peptoid” (The University of Durham, priority 2015, published 2018).
